Results: paper PMC10349806 (Nature Communications, 2023)
Where “and” joins values, the source holds several entries; their conditions need not be identical. Equal values may be shown once.

Legend:
[1] = tested on: PfCRT variant E207C; assay: CQ uptake assay, oocytes expressing E207C; assay type: cell-based, Plasmodium falciparum
Procedure: (§1) Site-directed mutagenesis of PfCRT^Dd2 was performed as described using the megaprimer method with overlap extension[21],[54]. The primer pairs used are listed in Supplementary Table 6. Please note that a codon-optimized and oocyte-adapted version of PfCRT^Dd2 was used[22] (Supplementary Fig. 16). The resulting DNA fragment was cloned into the SP64T expression vector and verified by sequencing.
(§2) Oocytes were obtained as described previously. Briefly, adult (>2 years old) female X. laevis frogs (NASCO) were anesthetized in a cooled solution of ethyl 3-amino benzoate methanesulfonate (0.1%, w/v), followed by a surgical removal of parts of the ovary. The ovary lobes were carefully dissected and small pieces of oocytes were incubated in Ca^2+-free ND96 buffer (96 mM NaCl, 2 mM KCl, 1 mM MgCl2 buffered with 5 mM HEPES/NaOH, pH 7.5) supplemented with collagenase D (0.1%, w/v; Roche), BSA (0.5%, w/v), and 9 mm Na2HPO4 at 18 °C for 14-16 h while gentle shaking. After incubation, the oocytes were carefully washed several times with ND96 buffer (96 mM NaCl, 2 mM KCl, 1.8 mM CaCl2, 1 mM MgCl2 buffered with 5 mM HEPES/NaOH, pH 7.5) supplemented with 100 mg l^−1 gentamycin). Defolliculated and healthy-looking stage V-VI oocytes were manually selected for RNA microinjection. The RNA was generated as following: The codon-optimized sequences of PfCRT variants were cloned into the pSP64T expression vector. After vector linearization using the restriction endonucleases BamHI or SalI (New England Biolabs), transcription was performed using the in vitro SP6 mMessage mMachine Kit (Ambion)[34]. The obtained RNA was kept at −80 °C and diluted with nuclease-free water to a concentration of 0.6 μg μl^−1. Precision-bore glass capillary tubes (3.5-inch glass capillaries; Drummond Scientific Co.) were pulled on a vertical puller (P-87 Flaming/Brown micropipette puller, Sutter Instrument Co.), graduated, and placed on a microinjector (Nanoject II Auto-Nanoliter Injector, Drummond Scientific Co.). 50 nl of nuclease-free water alone (control oocytes) or 50 nl of 0.6 μg μl^−1 RNA were injected under stereomicroscopic control. Injected oocytes were incubated for 46–72 h at 18 °C with twice-daily buffer changes before usage in experiments.
Drug uptake assays were performed as described previously[21],[22],[24],[34]. […] The direction of radio-labeled drug transport is here from the mostly acidic extracellular solution (pH 4.5 or 6.0, as indicated) into the oocyte cytosol (pH ∼ 7.2), which corresponds to the efflux of drug from the acidic digestive vacuole (pH 5.2) into the parasite cytoplasm (pH 7.2). The topology of PfCRT in the oolemma is such that both the N- and C-terminus face the extracellular milieu[3],[22]. In the parasite, the N- and C-terminus face the lumen of the digestive vacuole. CQ uptake kinetics were performed by incubating oocytes in ND96 buffer adjusted to a pH of 4.5, 5.0, 5.5, or 6.0 and supplemented with 50 nM [^3H]CQ and one of 7 different CQ concentrations (10 µM, 50 µM, 100 µM, 200 µM, 300 µM, 400 µM, 500 µM CQ). The reaction was stopped at the 60 min time point, which is in the linear uptake range[22],[34] (Supplementary Fig. 17). For determination of the amount of drug uptake for each oocyte, the reaction medium was removed and the oocytes were washed three times with 2 ml of ice-cold ND96 buffer. Each oocyte was individually transferred to a scintillation vial containing 5% sodium dodecyl sulfate (200 μl) for lysis. The radioactivity of each sample was measured using a liquid scintillation analyzer Tri-Carb 4910 TR (PerkinElmer). Oocytes that were injected with water instead of RNA were analyzed in parallel, representing the uptake of a drug by diffusion and/or endogenous permeation pathways. The resulting value represents the “background“ level of drug accumulation in oocytes (in-depth discussion in[22]). […]

[2] = tested on: PfCRT variant E207W; assay: CQ uptake assay, oocytes expressing E207W; assay type: cell-based, Plasmodium falciparum
Procedure: as §1, §2
Drug uptake assays were performed as described previously[21],[22],[24],[34]. […] The direction of radio-labeled drug transport is here from the mostly acidic extracellular solution (pH 4.5 or 6.0, as indicated) into the oocyte cytosol (pH ∼ 7.2), which corresponds to the efflux of drug from the acidic digestive vacuole (pH 5.2) into the parasite cytoplasm (pH 7.2). The topology of PfCRT in the oolemma is such that both the N- and C-terminus face the extracellular milieu[3],[22]. In the parasite, the N- and C-terminus face the lumen of the digestive vacuole. […] For determination of the amount of drug uptake for each oocyte, the reaction medium was removed and the oocytes were washed three times with 2 ml of ice-cold ND96 buffer. Each oocyte was individually transferred to a scintillation vial containing 5% sodium dodecyl sulfate (200 μl) for lysis. […] Oocytes that were injected with water instead of RNA were analyzed in parallel, representing the uptake of a drug by diffusion and/or endogenous permeation pathways. The resulting value represents the “background“ level of drug accumulation in oocytes (in-depth discussion in[22]). The specific PfCRT-mediated uptake was determined by subtracting the corresponding background value measured in water-injected oocytes from that of PfCRT-expressing oocytes. In all cases, at least three separate experiments were performed on oocytes from different frogs (biological replicate), and for each condition in an experiment, measurements were made from 10 oocytes per treatment. For pH 5.5, 6.0, and 6.5, ND96 was buffered with 5 mM MES/Tris base.

[3] = E207C, 50 µM CQ, 1 h, mean ± SEM
[4] = pH 4.5, individual replicates, Fig 6b
[5] = pH 6.0, individual replicates, Fig 6b
[6] = ratio of activity pH 4.5 / pH 6.0
[7] = E207W, 50 µM CQ, 1 h, mean ± SEM

## CCN(CC)CCCC(C)Nc1ccnc2cc(Cl)ccc12 (stereo not drawn) [CQ, chloroquine]
[1]; [3]
  Activity at pH 4.5: 1.30 ± 0.11 pmol h-1 oocyte-1
  Activity at pH 6.0: 1.53 ± 0.16 pmol h-1 oocyte-1
[1]; E207C, CQ transport at pH 4.5 / pH 6.0
  R-value: 0.86 ± 0.09
[1]; [4]
  E207C transport activity pH 4.5: 0.95 pmol oocyte-1 h-1 and 1.34 pmol oocyte-1 h-1 and 1.57 pmol oocyte-1 h-1 and 1.33 pmol oocyte-1 h-1
[1]; [5]
  E207C transport activity pH 6.0: 1.15 pmol oocyte-1 h-1 and 2.00 pmol oocyte-1 h-1 and 1.64 pmol oocyte-1 h-1 and 1.34 pmol oocyte-1 h-1
[1]; [6]
  E207C R-value: 0.83 and 0.67 and 0.96 and 0.99
[2]; [7]
  Activity at pH 4.5: 2.40 ± 0.17 pmol h-1 oocyte-1
  Activity at pH 6.0: 3.18 ± 0.35 pmol h-1 oocyte-1
[2]; E207W, CQ transport at pH 4.5 / pH 6.0
  R-value: 0.78 ± 0.06
[2]; [4]
  E207W transport activity pH 4.5: 2.68 pmol oocyte-1 h-1 and 2.94 pmol oocyte-1 h-1 and 1.91 pmol oocyte-1 h-1 and 1.82 pmol oocyte-1 h-1 and 2.34 pmol oocyte-1 h-1
[2]; [5]
  E207W transport activity pH 6.0: 2.46 pmol oocyte-1 h-1 and 4.37 pmol oocyte-1 h-1 and 2.52 pmol oocyte-1 h-1 and 2.14 pmol oocyte-1 h-1 and 3.58 pmol oocyte-1 h-1 and 4.02 pmol oocyte-1 h-1
[2]; [6]
  E207W R-value: 0.67 and 0.76 and 0.85 and 0.65
